Assay results from patent US5248680A, “Zwitterionic compounds and their n-halo derivatives for use in the treatment of clinical conditions” (Bloomfield D.A., priority 1990, dated 1993).
Where two headings read alike, the source gives them in different places.

Tests used:
[1] = Skin penetration and percutaneous absorption of 14C-HEPES after a single topical dose; type: in vivo, human; conditions: for Mean urinary excretion of radioactivity: mean (S.D.), up to 120 hours
Experimental: The skin penetration and percutaneous absorption of radioactivity following topical administration of a single does of ^14 C-HEPES (approximately 100 mg 5% cream containing 70 uCi ^14 C) was investigated in two groups of six healthy male volunteers. The dose was applied to intact skin in one group and to skin stripped 10 times with scotch tape in the second group. The unabsorbed material was removed after 12 hours and the area of application was stripped 10 times in order to determine skin penetration. Blood, urine and faeces samples were collected up to 120 hours after dose application for assessment of total radioactivity.

[2] = test system: peripheral blood neutrophils; assay: Chemiluminescence (reactive oxidant production) of peripheral blood neutrophils stimulated with calcium ionophore; type: cell-based; conditions: Homo sapiens, Neutrophil, 10 mM HEPES, mean ± S.E.M., read-out: Chemiluminesence production by neutrophils
Excerpt: Patients were selected with mild to moderate plaque-type psoriasis on the basis of clinical and histological evidence of disease. Normal volunteers were selected from laboratory personnel without personal or family history of inflammatory disease. Disease control groups included: a) patients with eczema, acne and dermatitis herpetiformis; and b) patients with Crohn's disease and ulcerative colitis. Blood samples from each subject were drawn into sodium heparin Vacutainers® (Vacutainer is a Trade Mark). The inflammatory cells (neutrophils) were isolated by dextran sedimentation and FICOLL-PAQUE®(FICOLL-PLAQUE is a Trade Mark) gradient centrifugation. Viability and purity were assessed by fluorescence microscopy, using ethidium bromide and acridine orange staining. […] Chemiluminescence activity of the peripheral blood neutrophils was tested using the method of Bloomfield, F. J. and Young, M. M. (Inflammation, (1982) 6, 257, hereby incorporated by reference), using calcium ionophore (2μ Molar) as stimulant instead of opsonized zymosan. Chemiluminescence is a measure of the production of reactive oxidants by neutrophils in response to an inflammatory stimulus. It was observed that there was significant reduction in chemiluminescence activity by neutrophils in the taurine-treated and HEPES-treated cells compared to control cells in all groups.

neutrophils [3] = assay: Degranulation of lysosomal enzymes by neutrophils stimulated with calcium ionophore; type: cell-based, human; conditions: for activity at 10000 µM: Homo sapiens, Neutrophil, 10 mM HEPES, mean
Excerpt: (§1) Patients were selected with mild to moderate plaque-type psoriasis on the basis of clinical and histological evidence of disease. Normal volunteers were selected from laboratory personnel without personal or family history of inflammatory disease. Disease control groups included: a) patients with eczema, acne and dermatitis herpetiformis; and b) patients with Crohn's disease and ulcerative colitis.
(§2) Blood samples from each subject were drawn into sodium heparin Vacutainers® (Vacutainer is a Trade Mark). The inflammatory cells (neutrophils) were isolated by dextran sedimentation and FICOLL-PAQUE®(FICOLL-PLAQUE is a Trade Mark) gradient centrifugation. Viability and purity were assessed by fluorescence microscopy, using ethidium bromide and acridine orange staining.
Stimulation of the inflammatory process in neutrophils, not only activates the respiratory burst, but as a consequence, is also associated with release of lysosomal enzymes from the cells in a process called degranulation. Degranulation of lysosomal enzymes was stimulated in neutrophils from each group of subjects, using calcium ionophore as inflammatory stimulant.

myeloperoxidase [4] = assay: Myeloperoxidase activity of neutrophils after preincubation with zwitterion; type: cell-based, human; conditions: 10 mM HEPES, mean ± S.E.M.
Excerpt: as §1, §2

catalase = assay: Catalase activity of neutrophils after preincubation; type: cell-based, human; conditions: neutrophils preincubated with HEPES or taurine; data not shown
neutrophils [5] = assay: Hypochlorous acid production by neutrophils; type: cell-based; conditions: Homo sapiens, Neutrophil, 10 mM HEPES, mean ± S.E.M.
Excerpt: as §1, §2

neutrophils [6] = assay: Leukotriene B4 in supernatants of stimulated neutrophils; type: cell-based, human; conditions: 10 mM HEPES, mean ± S.E.M.; for activity at 10000 µM: Homo sapiens, Neutrophil, read-out: Leukotriene B4 production by neutrophils
Excerpt: as §1, §2
(§3) It was therefore proposed to test the hypothesis that HEPES could inactivate leukotriene B4 by indirect stimulation of MPO leading to increased production of hypochlorous acid from cellular hydrogen peroxide.
For the methodology used in the in vitro studies hereinafter described reference should be made to McLoughlin, D. M. et al. Biochem. Soc. Trans. (1991) 19:73-78 hereby incorporated by reference, except where otherwise stated.

monocytes = assay: Leukotriene B4 in stimulated monocytes; type: cell-based, human; conditions: preincubation with 10 mM HEPES or 40 mM taurine; data not shown
Excerpt: as §3

[7] = test system: carrageenan induced paw oedema; assay: Carrageenan-induced paw oedema in rats; type: in vivo, rat
Experimental: The studies were conducted on inbred Wistar strain albino rats (120-180 g) of either sex. The rats were housed in colony cages at an ambient temperature of 25°±2° C. and fed on standard pellet chow. The rats were anaesthetized using pentobarbitone sodium, their hind paws were marked and the volume measured. […] The control animals were injected with 10 μl of 0.9% saline solution. […] One hour following the carrageenan injection the hind paw volume was measured again. A 5 ml blood sample was taken from each animal into sodium heparin Vacutainers. Chemiluminescence activity was assayed in the PBMC isolated from each animal.
These studies were also conducted on inbred Wistar strain albino rats (120-180 g) of either sex. The rats were anaesthetized using pentobarbitone sodium prior to marking each hind paw and measuring paw volume. […] The control animals received 0.5 ml of 0.9% NaCl subcutaneously. 30 min after the injections were administered, paw oedema was induced using carrageenan. One hour following carrageenan administration the hind paw volume was measured. A 5 ml blood sample was taken from each animal into sodium heparin Vacutainers and used for chemiluminescence measurement.

myeloperoxidase [8] = assay: Binding of zwitterion to myeloperoxidase (preliminary studies)
[9] = Normal + iodide (1 mM potassium iodide)

O=S(=O)(O)CCN1CCN(CCO)CC1 [HEPES, N-2-hydroxyethylpiperazine-N'-2-ethanesulphonic acid]
tolerability of single topical dose ([1]; intact and stripped skin groups): well tolerated
Mean urinary excretion of radioactivity ([1]; intact skin group): 0.07+0.08% of the applied dose
radioactivity in 48-72 hour faecal sample ([1]; one subject of the stripped skin group): 0.11 % of the applied dose
abnormalities in biochemistry, haematology and urinalysis screens ([1]; single topical dose): not considered to be related
radioactivity in plasma or faecal samples ([1]; single topical dose approx. 100 mg 5% cream, intact and stripped skin groups, samples up to 120 hours): No radioactivity was detected
Mean urinary excretion of radioactivity ([1]; stripped skin group): 0.20±0.22% of the applied dose
activity at 10000 µM ([2]; Normal): 28.8 ± 4.24%
activity at 10000 µM ([2]; Psoriasis): 26.9 ± 3.25%
activity at 10000 µM ([2]; disease controls (a) eczema, acne, dermatitis herpetiformis): 28.8 ± 3.84%
activity at 10000 µM ([2]; disease controls (b) Crohn's disease, ulcerative colitis): 25.4 ± 6.4%
activity at 10000 µM (neutrophils [3]; Normal): 104%
activity at 10000 µM (neutrophils [3]; Psoriasis): 104%
activity at 10000 µM (neutrophils [3]; disease controls (a)): 87.2%
degranulation by preincubated neutrophils compared to control cells (neutrophils [3]; result in words, taurine data not shown): no difference in degranulation
Myeloperoxidase activity of neutrophils (myeloperoxidase [4]; Normal): 228 ± 25.4 percentage activity of control
Myeloperoxidase activity of neutrophils (myeloperoxidase [4]; Psoriasis): 247 ± 30.1 percentage activity of control
Myeloperoxidase activity of neutrophils (myeloperoxidase [4]; disease controls (a)): 198 ± 17.1 percentage activity of control
Myeloperoxidase activity of neutrophils (myeloperoxidase [4]; disease controls (b)): 211 ± 56.4 percentage activity of control
effect on catalase activity (catalase): no effect on catalase activity
activity at 10000 µM (neutrophils [5]; Normal): 211 ± 12.5%
activity at 10000 µM (neutrophils [5]; Psoriasis): 193 ± 10.7%
activity at 10000 µM (neutrophils [5]; disease controls (a)): 152 ± 8.3%
Leukotriene B4 production by neutrophils (neutrophils [6]; [9]): no measurable leukotriene B4
activity at 10000 µM (neutrophils [6]; [9]): 0%
activity at 10000 µM (neutrophils [6]; Normal): 55.8 ± 8.9%
activity at 10000 µM (neutrophils [6]; Psoriasis): 22.4 ± 6.62%
activity at 10000 µM (neutrophils [6]; disease controls (a)): 24.9 ± 8.99%
activity at 10000 µM (neutrophils [6]; disease controls (b)): 16.7 ± 6.42%
reduction of leukotriene B4 in monocytes (monocytes): also demonstrated in monocytes
percentage increase in paw volume ([7]; I.P. 500 μg HEPES, 1 h after carrageenan, mean ± S.E.M.): 23 ± 4 percentage increase in paw volume
reduction in paw oedema ([7]; intraperitoneal 500 μg HEPES, versus control): 50%
binding to the enzyme (MPO) (myeloperoxidase [8]): did not bind to the enzyme
